Consider three compounds from PubChem BioAssay (NCI).

Several values for one entry are separate records, joined by “and”; a condition that tells them apart may be missing. Identical values can stand only once.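 Dose response: 5 concentrations. Exposure: 48 h. Format: 96-well plates. Endpoint: linear interpolation; highest concentration if not reached. GI50: concentration for 50% inhibition of growth. The concentration for full growth arrest is given as TGI.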

Test systems include A498 renal; ACHN renal; BT-549 breast; EKVX NSCLC; LOX IMVI melanoma; MOLT-4 leukemia; NCI-H23 lung; SK-MEL-2 melanoma; UACC-257 melanoma; UO-31 renal.
What all share (test): growth of human tumour cells (NCI), 48 h

Turning to `CCC[CH2][Sn]([CH2]CCC)([O]C(=O)c1cccc(F)c1F)[O][Sn]([CH2]CCC)([CH2]CCC)[O]C(=O)c1cccc(F)c1F`, the GI50 is 202 nM in the experiment on A498 renal; 214 nM with ACHN renal; 121 nM in the experiment on BT-549 breast; 675 nM with EKVX NSCLC; 111 nM with LOX IMVI melanoma; 84 nM in the experiment on MOLT-4 leukemia. The GI50 was 55.7 nM in the experiment on NCI-H23 lung, 166 nM in the experiment on SK-MEL-2 melanoma, 222 nM in the experiment with UACC-257 melanoma and 506 nM in the experiment with UO-31 renal. The TGI in the experiment with A498 renal is 526 nM; in the experiment on ACHN renal it was 512 nM; in the experiment with BT-549 breast, 369 nM; in the experiment with EKVX NSCLC, 2040 nM; with LOX IMVI melanoma it was 250 nM; in the experiment with MOLT-4 leukemia, 821 nM. Moreover, the TGI with NCI-H23 lung was 272 nM; in the experiment with SK-MEL-2 melanoma, 447 nM; in the experiment with UACC-257 melanoma, 728 nM; in the experiment on UO-31 renal it was 1720 nM.
Take `C=C1C(=O)O[C@H]2[C@H]1CC/C(COC(=O)N[C@@H](Cc1c[nH]c3ccccc13)C(=O)OC)=C\CC[C@@]1(C)O[C@@H]21`: the GI50 was 10300 nM in the experiment with A498 renal; 1160 nM with ACHN renal; 1840 nM in the experiment with BT-549 breast; 1780 nM in the experiment on EKVX NSCLC; 1160 nM with LOX IMVI melanoma; 1540 nM in the experiment with MOLT-4 leukemia. The GI50 in the experiment with NCI-H23 lung is 1840 nM; in the experiment on SK-MEL-2 melanoma, 2210 nM; with UACC-257 melanoma, 1860 nM; with UO-31 renal it was 1450 nM. Further, the TGI worked out at 22300 nM with A498 renal; 2440 nM in the experiment with ACHN renal; 3790 nM in the experiment with BT-549 breast; 4430 nM in the experiment on EKVX NSCLC; 2580 nM in the experiment with LOX IMVI melanoma; 5050 nM in the experiment with MOLT-4 leukemia. For the same compound, the TGI with NCI-H23 lung is 4590 nM; with SK-MEL-2 melanoma, 6060 nM; in the experiment with UACC-257 melanoma, 3970 nM; with UO-31 renal it was 2760 nM.
As for `Cc1cc(-c2cc(C)c(O)c(C(C)(C)C)c2)cc(C(C)(C)C)c1O`, the TGI was 21300 nM and 32700 nM in the experiment with A498 renal; 22400 nM and 29100 nM in the experiment on ACHN renal; 27600 nM and 26500 nM in the experiment with BT-549 breast; 22700 nM and 28400 nM in the experiment on EKVX NSCLC; 29400 nM and 23600 nM in the experiment with LOX IMVI melanoma; 19400 nM and 21500 nM with MOLT-4 leukemia. Also, the TGI was 26200 nM and 24700 nM in the experiment on NCI-H23 lung; 19400 nM and 25800 nM in the experiment on SK-MEL-2 melanoma; 24100 nM and 24700 nM in the experiment on UACC-257 melanoma; 23000 nM and 32000 nM in the experiment on UO-31 renal.
